The target in data set [1] is CYP2C19 (Homo sapiens, UniProt P33261). Kind of data set: Inhibition of CYP2C19 (unknown origin) at 10 uM relative to control. Type of data set: ADME.
A short description of data set [2]: Metabolic stability in human liver microsomes assessed as compound remaining after 30 mins. It is filed as ADME, Microsome. The settings on record: 0.5 h.
For data set [3], the target named is Voltage-gated inwardly rectifying potassium channel KCNH2 (Homo sapiens, UniProt Q12809). Kind of data set: Displacement of [3H]astemizole from human ERG expressed in HEK293 cell membrane at 10 uM by Radiometric displacement assay relative to control. It is filed as toxicity, cell membranes. The settings on record: hek293, 10 µM.
A short description of data set [4]: Half life in human liver microsomes. Type of data set: ADME, Microsome.
The target in data set [5] is Adenylate cyclase type 8 (Homo sapiens, UniProt P40145). Kind of data set: Inhibition of Ca2+/ CAM stimulated human AC8 expressed in AC3 and AC6-knockout HEK293 cells assessed as A23187 stimulated cAMP accumulation at 10 uM incubated for 30 mins followed by […] in presence of IBMX for 1 hr by HTRF assay relative to control. It is filed as cell-based. The settings on record: time 90.0 min.

Data set [6] can be described thus: Apparent permeability in MDCK-II cells. It is filed as ADME, cell-based, Canis lupus familiaris. The settings on record: dog.
The target in data set [7] is CYP3A4 (Homo sapiens, UniProt P08684). Kind of data set: Inhibition of CYP3A4 (unknown origin) at 10 uM relative to control. Type of data set: ADME.
In data set [8] the target is Insulin receptor (Homo sapiens) (UniProt P06213). Kind of data set: Inhibition of human recombinant IRK assessed as inhibition of phosphorylation activity at 10 uM using 33P-labeleled peptide substrate by radiometric scintillation counting assay relative to control.
Data set [9] can be described thus: Thermodynamic solubility of the compound in PBS at pH 7.4. Type of data set: physicochemical. The settings on record: read-out: Therm_solubility.
Data set [10] addresses CYP2D6 (Homo sapiens, UniProt P10635). Kind of data set: Inhibition of CYP2D6 (unknown origin) at 10 uM relative to control. Type of data set: ADME.
Data set [11] in a line: Metabolic stability in human liver microsomes assessed as compound remaining after 45 mins. It is filed as ADME, Microsome. The settings on record: 0.75 h.
The target of data set [12] is T1, CYP1A2 (Homo sapiens, UniProt P05177).
T1 sequence (P05177 whole entry): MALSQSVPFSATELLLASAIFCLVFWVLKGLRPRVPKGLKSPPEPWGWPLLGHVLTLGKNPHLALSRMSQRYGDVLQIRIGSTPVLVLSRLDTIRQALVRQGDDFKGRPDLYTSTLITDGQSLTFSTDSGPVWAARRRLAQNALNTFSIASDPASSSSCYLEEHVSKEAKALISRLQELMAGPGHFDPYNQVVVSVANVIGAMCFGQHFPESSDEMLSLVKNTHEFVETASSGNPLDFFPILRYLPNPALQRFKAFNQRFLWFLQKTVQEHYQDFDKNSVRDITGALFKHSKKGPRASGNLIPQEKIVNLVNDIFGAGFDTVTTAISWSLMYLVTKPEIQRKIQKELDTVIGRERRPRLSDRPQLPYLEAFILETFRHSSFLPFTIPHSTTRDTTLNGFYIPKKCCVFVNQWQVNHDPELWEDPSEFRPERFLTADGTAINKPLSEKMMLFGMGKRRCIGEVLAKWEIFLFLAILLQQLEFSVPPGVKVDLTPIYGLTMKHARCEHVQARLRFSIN
Kind of data set: Inhibition of CYP1A2 (unknown origin) at 10 uM relative to control. Type of data set: ADME.

Data set [13] can be described thus: Metabolic stability in human liver microsomes assessed as compound remaining after 60 mins. It is filed as ADME, Microsome. The settings on record: 1 h.
In data set [14] the target is CYP2C9 (Homo sapiens, UniProt P11712). Kind of data set: Inhibition of CYP2C9 (unknown origin) at 10 uM relative to control. It is filed as ADME.
The nature of data set [15]: Metabolic stability in human liver microsomes assessed as compound remaining after 15 mins. Type of data set: ADME, Microsome. The settings on record: 0.25 h.
The subject of data set [16] is Mus musculus. Kind of data set: Antiallodynic activity against CFA-induced C57BL/6N mouse inflammatory pain model assessed as inhibition of inflammatory mechanical allodynia at 5.6 mg/kg, ip measured at 1 hr post treatment by von Frey test. Type of data set: functional, organism-based.
Data set [17] can be described thus: Intrinsic clearance in human liver microsomes. It is filed as ADME, Microsome.
The subject of data set [18] is HEK293. Kind of data set: Cytotoxicity against HEK293 cells assessed as reduction in cell viability at 30 uM incubated for 1 hr by cell titer glo assay. It is filed as toxicity, cell-based. The settings on record: human, hek293, 1 h.

≈ marks a conversion by molar mass, not a printed value. Calls of active or inactive are those of the source. The rule behind the calls is not given here.

Chain of CYP2D6 (P10635 whole entry): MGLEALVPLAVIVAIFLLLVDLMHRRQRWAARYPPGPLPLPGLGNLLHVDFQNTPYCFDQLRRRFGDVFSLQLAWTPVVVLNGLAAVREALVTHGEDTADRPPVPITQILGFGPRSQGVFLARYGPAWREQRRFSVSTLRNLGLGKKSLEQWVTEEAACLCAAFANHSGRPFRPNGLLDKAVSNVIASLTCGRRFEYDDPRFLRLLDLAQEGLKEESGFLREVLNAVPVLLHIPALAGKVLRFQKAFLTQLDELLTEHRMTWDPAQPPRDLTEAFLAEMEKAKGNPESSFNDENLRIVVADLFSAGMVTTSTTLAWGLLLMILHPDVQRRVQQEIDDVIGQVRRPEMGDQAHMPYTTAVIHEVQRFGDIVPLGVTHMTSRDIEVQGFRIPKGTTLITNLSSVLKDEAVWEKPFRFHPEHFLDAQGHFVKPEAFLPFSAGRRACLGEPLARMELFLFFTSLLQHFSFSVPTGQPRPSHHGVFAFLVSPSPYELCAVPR
Chain of CYP2C19 (P33261 whole entry): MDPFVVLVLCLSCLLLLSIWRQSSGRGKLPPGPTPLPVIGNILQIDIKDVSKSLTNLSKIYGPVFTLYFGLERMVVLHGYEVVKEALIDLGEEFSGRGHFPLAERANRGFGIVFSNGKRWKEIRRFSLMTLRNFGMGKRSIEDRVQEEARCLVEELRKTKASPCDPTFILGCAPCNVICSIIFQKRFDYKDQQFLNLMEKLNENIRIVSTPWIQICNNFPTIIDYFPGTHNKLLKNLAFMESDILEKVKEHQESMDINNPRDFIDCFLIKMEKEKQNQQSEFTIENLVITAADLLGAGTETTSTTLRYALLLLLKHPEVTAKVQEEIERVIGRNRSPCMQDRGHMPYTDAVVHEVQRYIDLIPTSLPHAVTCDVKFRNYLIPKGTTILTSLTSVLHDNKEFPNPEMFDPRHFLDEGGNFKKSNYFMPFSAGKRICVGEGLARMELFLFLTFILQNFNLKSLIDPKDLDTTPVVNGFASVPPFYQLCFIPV
Chain of Insulin receptor (Homo sapiens) (P06213 28-758 limits assumed): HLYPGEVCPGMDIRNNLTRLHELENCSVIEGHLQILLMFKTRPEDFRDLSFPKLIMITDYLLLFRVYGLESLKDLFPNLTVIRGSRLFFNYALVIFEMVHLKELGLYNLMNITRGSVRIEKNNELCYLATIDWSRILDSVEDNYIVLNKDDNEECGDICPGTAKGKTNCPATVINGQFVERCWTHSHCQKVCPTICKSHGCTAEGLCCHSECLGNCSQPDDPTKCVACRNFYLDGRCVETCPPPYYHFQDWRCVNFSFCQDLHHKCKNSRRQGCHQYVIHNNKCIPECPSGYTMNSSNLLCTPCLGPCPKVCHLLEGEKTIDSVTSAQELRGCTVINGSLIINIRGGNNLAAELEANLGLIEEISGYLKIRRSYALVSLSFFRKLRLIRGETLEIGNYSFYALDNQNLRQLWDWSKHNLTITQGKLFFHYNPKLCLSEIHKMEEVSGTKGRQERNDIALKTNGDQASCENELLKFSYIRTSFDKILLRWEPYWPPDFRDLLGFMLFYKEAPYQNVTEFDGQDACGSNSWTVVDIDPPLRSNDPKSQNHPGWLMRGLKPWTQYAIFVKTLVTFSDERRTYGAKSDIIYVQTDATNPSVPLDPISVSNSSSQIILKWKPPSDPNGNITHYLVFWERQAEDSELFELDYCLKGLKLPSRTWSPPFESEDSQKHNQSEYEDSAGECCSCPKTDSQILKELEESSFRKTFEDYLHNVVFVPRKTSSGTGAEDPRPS
Chain of Insulin receptor (Homo sapiens) (P06213 763-1382 limits assumed): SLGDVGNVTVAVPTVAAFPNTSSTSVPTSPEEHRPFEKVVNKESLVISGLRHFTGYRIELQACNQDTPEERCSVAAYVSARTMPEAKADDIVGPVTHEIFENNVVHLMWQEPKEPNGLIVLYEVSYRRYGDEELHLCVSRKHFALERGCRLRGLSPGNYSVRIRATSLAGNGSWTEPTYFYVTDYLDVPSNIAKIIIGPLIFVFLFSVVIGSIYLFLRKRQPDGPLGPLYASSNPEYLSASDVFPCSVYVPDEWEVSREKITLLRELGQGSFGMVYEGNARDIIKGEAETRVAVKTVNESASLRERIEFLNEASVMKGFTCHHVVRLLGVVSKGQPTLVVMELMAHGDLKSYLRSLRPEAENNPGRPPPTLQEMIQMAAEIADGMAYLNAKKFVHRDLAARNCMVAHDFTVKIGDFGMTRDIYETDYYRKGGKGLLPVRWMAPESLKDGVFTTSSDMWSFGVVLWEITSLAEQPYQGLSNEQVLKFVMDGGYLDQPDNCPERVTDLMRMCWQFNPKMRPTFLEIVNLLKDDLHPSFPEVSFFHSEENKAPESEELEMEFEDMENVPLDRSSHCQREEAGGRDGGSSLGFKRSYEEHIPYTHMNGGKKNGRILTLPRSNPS
Chain of CYP3A4 (P08684 whole entry): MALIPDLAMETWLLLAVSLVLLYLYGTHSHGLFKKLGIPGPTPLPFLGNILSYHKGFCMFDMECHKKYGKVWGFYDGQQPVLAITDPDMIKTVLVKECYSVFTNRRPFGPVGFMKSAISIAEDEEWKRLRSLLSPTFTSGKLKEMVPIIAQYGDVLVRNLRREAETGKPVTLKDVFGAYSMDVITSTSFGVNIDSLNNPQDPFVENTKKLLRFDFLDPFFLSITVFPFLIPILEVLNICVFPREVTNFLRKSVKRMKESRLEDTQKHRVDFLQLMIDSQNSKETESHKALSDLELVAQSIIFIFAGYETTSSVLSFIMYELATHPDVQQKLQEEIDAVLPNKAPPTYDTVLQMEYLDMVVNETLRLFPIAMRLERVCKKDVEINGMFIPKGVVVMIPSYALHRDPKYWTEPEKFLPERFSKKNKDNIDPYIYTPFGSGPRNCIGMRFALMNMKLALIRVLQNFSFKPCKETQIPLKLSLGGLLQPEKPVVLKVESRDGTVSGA
Chain of CYP2C9 (P11712 whole entry): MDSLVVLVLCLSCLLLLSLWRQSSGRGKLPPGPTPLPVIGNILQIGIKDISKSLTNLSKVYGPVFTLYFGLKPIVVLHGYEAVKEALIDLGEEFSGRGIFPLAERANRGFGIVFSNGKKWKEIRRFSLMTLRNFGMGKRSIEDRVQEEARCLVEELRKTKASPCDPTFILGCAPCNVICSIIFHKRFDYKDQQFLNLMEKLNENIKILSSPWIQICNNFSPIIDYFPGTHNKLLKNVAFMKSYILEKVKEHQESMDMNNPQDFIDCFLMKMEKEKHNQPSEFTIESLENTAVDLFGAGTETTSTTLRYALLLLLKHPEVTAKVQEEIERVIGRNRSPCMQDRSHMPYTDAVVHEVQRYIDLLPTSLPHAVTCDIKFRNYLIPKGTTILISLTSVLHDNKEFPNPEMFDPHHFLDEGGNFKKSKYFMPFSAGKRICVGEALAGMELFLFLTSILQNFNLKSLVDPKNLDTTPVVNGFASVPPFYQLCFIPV
Chain of Voltage-gated inwardly rectifying potassium channel KCNH2 (Q12809 whole entry): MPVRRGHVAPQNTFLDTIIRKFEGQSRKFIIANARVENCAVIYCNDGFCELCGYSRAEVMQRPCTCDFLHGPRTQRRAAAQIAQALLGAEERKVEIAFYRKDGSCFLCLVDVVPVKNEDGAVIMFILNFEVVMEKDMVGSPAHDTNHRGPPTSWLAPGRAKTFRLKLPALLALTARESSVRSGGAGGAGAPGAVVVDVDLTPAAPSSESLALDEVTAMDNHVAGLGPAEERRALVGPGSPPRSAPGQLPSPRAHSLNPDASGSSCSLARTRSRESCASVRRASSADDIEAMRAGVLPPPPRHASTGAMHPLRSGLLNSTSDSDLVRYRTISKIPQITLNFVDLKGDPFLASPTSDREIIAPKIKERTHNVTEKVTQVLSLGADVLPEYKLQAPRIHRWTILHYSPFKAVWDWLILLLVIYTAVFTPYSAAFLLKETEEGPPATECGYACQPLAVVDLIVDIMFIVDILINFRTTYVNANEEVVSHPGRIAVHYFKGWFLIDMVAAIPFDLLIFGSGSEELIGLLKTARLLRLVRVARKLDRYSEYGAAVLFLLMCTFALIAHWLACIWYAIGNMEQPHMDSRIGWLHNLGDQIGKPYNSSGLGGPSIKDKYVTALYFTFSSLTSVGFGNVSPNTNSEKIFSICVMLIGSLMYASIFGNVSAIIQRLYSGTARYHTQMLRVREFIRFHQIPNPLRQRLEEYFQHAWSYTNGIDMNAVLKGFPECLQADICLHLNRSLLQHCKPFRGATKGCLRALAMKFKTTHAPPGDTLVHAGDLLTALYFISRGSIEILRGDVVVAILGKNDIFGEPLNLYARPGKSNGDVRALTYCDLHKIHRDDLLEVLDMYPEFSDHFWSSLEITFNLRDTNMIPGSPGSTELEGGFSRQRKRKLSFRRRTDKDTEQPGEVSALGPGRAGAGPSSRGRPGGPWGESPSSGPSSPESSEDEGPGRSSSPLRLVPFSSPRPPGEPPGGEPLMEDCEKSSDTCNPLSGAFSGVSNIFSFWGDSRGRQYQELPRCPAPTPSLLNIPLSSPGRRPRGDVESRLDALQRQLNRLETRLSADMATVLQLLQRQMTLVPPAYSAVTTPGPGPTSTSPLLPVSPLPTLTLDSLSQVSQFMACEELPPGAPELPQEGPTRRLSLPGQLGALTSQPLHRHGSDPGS

On to `CCc1cc(=O)[nH]c(-n2nc(C)cc2NC(=O)c2cc(C)ccc2F)n1`, for which the inhibition at 10 µM in data set [1] is 1.8%; in [7], -0.9%; in data set [10] it was 0.3%; in [12], 8.7%; in data set [14] it was -0.2%. The Stability came to 67.4% in data set [2], 57.5% in data set [11], 44.5% in [13] and 88.3% in data set [15]. Besides, the “inhibition (INH)” value in data set [3] worked out at 6%. In [4], this molecule registered a t1/2 of 51.2 min. Further, the inhibition result in data set [5] was “Active”. Also, the Papp in [6] turned out to be 2.21 ×10⁻⁶ cm/s. Also, the inhibition in [8] was found to be 64%. Moreover, the solubility thermodynamic in data set [9] worked out at 33.6 µM (≈ 11.9 µg/mL). Moreover, the result in [16] was Active. Further, the CLH in data set [17] is 136.7 µL/min/mg. Also, in data set [18], the Activity result was “Non-Toxic”.

For the origin of these results see ChEMBL document CHEMBL5154791, “Optimization of a Pyrimidinone Series for Selective Inhibition of Ca2+/Calmodulin-Stimulated Adenylyl Cyclase 1 Activity for the Treatment of Chronic Pain” (J Med Chem, 2022).
